Assay results reported in paper PMC5512079, “The sialate O-acetylesterase EstA from gut Bacteroidetes species enables sialidase-mediated cross-species foraging of 9-O-acetylated sialoglycans” (The Journal of Biological Chemistry, 2017).

Target: T1, B. thetaiotaomicron NanH sialidase (NanH-His) (Bacteroides thetaiotaomicron, UniProt Q8AAK9)
T1 construct: gene BT_0455
T1 sequence (Q8AAK9 23-544): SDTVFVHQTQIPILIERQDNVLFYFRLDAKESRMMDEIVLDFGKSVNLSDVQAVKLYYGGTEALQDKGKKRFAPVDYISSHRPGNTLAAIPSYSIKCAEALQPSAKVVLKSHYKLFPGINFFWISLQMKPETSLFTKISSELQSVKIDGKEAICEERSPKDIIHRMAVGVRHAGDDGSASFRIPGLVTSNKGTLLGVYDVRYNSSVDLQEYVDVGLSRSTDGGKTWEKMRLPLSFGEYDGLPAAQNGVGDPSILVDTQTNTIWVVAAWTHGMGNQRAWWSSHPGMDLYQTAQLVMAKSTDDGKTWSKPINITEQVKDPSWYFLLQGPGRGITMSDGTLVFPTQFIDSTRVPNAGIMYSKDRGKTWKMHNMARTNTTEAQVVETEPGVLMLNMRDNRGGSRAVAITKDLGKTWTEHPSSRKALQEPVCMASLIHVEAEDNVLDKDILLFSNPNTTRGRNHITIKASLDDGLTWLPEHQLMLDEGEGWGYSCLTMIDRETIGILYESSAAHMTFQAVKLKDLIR
Assay: fluorogenic sialidase assay, 4-methylumbelliferone release (ex […] nm, em […] nm)
Type: biochemical
Conditions: 100 uM 4-MU-Sia, PBS pH 7.4; used to test fractions and estimate milliunits

`CC(=O)N[C@H]1[C@H]([C@H](O)[C@H](O)CO)OC(Oc2ccc3c(C)cc(=O)oc3c2)(C(=O)O)C[C@@H]1O` (stereo partly shown) [4-methylumbelliferyl-N-acetylneuraminic acid] was tested, and the “fluorogenic sialidase assay, 4-methylumbelliferone release (ex 365 nm, em 440 nm)” value was “Fractions were tested for activity with the fluorogenic sialidase substrate 4-methylumbelliferyl-N-acetylneuraminic acid”.
